The source of these data is PMC7324980, “A novel bacterial β-N-acetyl glucosaminidase from Chitinolyticbacter meiyuanensis possessing transglycosylation and reverse hydrolysis activities” (Biotechnology for Biofuels, 2020).

The structures appear in SMILES notation.

The target in the assay is T1, CmNAGase (Chitinolyticbacter meiyuanensis, UniProt A0A7D5C7R1).
T1 construct: full length, 836 residues (2508 bp), no signal peptide predicted, C-terminal His6-tag, pET-28a(+), E. coli BL21(DE3), 92 kDa; native peptides […], […], […]; catalytic D508, E509
T1 sequence (A0A7D5C7R1 entry or part of it): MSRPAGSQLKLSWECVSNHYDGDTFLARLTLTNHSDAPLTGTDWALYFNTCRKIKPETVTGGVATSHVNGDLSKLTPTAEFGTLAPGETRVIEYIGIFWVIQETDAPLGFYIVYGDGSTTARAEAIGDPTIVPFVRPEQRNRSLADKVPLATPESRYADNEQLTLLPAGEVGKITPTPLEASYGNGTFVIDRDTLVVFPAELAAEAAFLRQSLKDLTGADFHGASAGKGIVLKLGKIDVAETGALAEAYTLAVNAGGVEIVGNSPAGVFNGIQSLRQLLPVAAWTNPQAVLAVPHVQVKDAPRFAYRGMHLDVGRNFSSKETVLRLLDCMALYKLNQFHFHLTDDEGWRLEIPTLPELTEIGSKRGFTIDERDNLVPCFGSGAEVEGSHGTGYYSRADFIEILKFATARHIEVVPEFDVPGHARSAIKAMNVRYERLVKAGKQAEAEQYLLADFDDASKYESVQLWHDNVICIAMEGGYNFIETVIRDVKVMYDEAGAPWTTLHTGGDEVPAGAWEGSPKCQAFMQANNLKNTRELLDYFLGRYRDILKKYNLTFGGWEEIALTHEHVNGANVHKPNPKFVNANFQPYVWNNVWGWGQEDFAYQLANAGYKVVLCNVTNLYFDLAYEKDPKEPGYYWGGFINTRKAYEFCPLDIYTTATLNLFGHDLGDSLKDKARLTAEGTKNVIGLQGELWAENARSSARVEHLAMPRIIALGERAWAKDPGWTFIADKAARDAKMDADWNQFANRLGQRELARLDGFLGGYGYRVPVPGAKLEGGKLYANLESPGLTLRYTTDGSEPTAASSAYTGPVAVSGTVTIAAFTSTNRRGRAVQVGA
The assay is described as follows: pNP release at […] nm, Lineweaver-Burk. Particulars: 50 mM sodium citrate, pH 5.4, 40 °C, 50-1000 μM substrate. The format is biochemical.

What is called Km is the substrate concentration at which the rate is half of its maximum.

As to `CC(=O)N[C@H]1[C@H](Oc2ccc([N+](=O)[O-])cc2)O[C@H](CO)[C@@H](O)[C@@H]1O` [pNP-GlcNAc], the Michaelis constant (Km) was found to be 500 µM.
